# Where “and” joins values, the source holds several entries; their conditions need not be identical. Identical values can stand only once. Counter-ions that a name gives are not always drawn.
# What was measured:
# [1] = system: μ receptor gene-disrupted 'knockout' (μ-KO) mice; conditions: mouse, in vivo
# human κ receptor [2] = system: human κ receptor
# C57BL/6J wild-type mice [3] = conditions: mouse, in vivo
# human μ receptor = target: T1, human μ receptor (Homo sapiens, UniProt P35372); assay: [35S]-GTPγS binding assay, CHO-hμ membranes; type: biochemical; conditions: at concentrations up to 10 μM
# T1 construct: expressed in transfected cells
# C57BL/6J wild-type mice [4] = conditions: mouse, in vivo; remark: listed apart in the source
# mice = system: mice; design: method as in Spetea et al., 2012; conditions: s.c., ref Spetea et al., 2012; cited from earlier work
# C57BL/6J wild-type mice [5] = assay: Rotorod assay to determine locomotor activity; type: in vivo, mouse; conditions: i.c.v., HS665 10 nmol, HS666 30 nmol (ED90); 10-60 min
# human NOP receptor = target: T2, human NOP receptor (Homo sapiens, UniProt P41146); assay: [3H]-N/OFQ NOP receptor binding assay, CHO-hNOP membranes; conditions: up to a concentration of 10 μM
# T2 construct: expressed in transfected cells
# human κ receptor [6] = target: T3, human κ receptor (Homo sapiens, UniProt P41145); assay: cell-based; type: cell-based; design: host or cells: U2OS (U2OS–hκ receptor–β‐arrestin2 cells), PathHunter eXpress
# μ receptor = target: μ receptor; design: method as in Spetea et al., 2012; conditions: ref Spetea et al., 2012; read-out: binding affinity (Ki) for the μ receptor; cited from earlier work
# [7] = system: κ receptor gene-disrupted 'knockout' (κ-KO) mice; conditions: mouse, in vivo
# human κ receptor [8] = target: human κ receptor; design: method as in Spetea et al., 2012; conditions: ref Spetea et al., 2012, read-out: binding affinity (Ki) for the κ receptor; cited from earlier work
# δ receptor = target: δ receptor; design: method as in Spetea et al., 2012; conditions: ref Spetea et al., 2012; read-out: binding affinity for the δ receptor; cited from earlier work
# human κ receptor [9] = target: T3, human κ receptor; assay: biochemical; type: biochemical; design: expressed in transfected cells
# C57BL/6J wild-type mice [10] = system: C57BL/6J wild-type mice; design: method as in Aldrich et al., 2014; conditions: i.c.v.; ref Aldrich et al., 2014; cited from earlier work
# T3 sequence (P41145 whole entry): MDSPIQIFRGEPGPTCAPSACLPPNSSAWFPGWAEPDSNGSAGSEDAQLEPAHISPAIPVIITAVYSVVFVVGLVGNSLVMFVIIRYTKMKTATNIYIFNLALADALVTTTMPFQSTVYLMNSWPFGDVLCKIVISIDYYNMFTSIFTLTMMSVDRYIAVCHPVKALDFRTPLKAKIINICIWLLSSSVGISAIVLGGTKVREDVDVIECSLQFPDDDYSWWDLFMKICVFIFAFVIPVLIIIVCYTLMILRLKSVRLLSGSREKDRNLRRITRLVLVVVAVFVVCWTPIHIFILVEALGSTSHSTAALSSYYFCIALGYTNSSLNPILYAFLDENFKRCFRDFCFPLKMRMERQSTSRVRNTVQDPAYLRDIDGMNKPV
# T2 sequence (P41146 whole entry): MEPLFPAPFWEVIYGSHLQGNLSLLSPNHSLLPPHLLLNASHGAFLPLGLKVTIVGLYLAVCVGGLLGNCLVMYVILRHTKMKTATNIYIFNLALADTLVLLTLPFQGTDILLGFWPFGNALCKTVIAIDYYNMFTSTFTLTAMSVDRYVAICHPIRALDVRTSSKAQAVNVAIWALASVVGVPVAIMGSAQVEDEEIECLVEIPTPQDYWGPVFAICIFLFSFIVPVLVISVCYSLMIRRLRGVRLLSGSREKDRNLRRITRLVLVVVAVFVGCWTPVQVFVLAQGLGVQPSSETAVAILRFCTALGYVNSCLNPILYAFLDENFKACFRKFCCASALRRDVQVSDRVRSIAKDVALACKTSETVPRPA
# T1 sequence (P35372 whole entry): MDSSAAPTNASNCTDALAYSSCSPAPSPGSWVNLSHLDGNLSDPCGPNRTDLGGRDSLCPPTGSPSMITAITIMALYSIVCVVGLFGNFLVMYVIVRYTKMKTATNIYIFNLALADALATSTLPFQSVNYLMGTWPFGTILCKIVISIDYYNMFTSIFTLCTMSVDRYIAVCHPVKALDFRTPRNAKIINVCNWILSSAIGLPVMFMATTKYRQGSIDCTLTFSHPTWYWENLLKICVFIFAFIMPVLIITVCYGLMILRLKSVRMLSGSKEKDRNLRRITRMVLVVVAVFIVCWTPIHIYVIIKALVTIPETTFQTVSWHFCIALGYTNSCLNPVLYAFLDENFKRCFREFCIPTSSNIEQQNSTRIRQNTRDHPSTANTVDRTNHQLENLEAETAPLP
compound,measurement,setting,value
Oc1cccc(CCN(CCc2ccccc2)CC2CCC2)c1 [HS665],antinociceptive activity in μ-KO mice compared with wild-type,[1],not statistically altered
same,bias factor (G protein over β-arrestin2),human κ receptor [2],389
same,conditioned place preference or aversion,C57BL/6J wild-type mice [3],significant place aversion
same,G protein activation (agonist activity) at the μ receptor,human μ receptor,no agonist activity
same,% antinociception,C57BL/6J wild-type mice [4],1.97 ± 1.18%
same,antinociceptive ED50 and 95% C.I.,C57BL/6J wild-type mice [4],3.99 (3.14 – 5.33) nmol and 4.74 (3.72 – 6.41) nmol and 3.74 (2.98–4.78) nmol and 3.74 nmol
same,κ receptor-mediated antinociceptive effects in the writhing test,mice,"comparable with U50,488"
same,effect on motor performance (latency to fall),C57BL/6J wild-type mice [5],did not significantly impact motor performance
same,affinity for the NOP receptor,human NOP receptor,no significant affinity
Oc1cccc(CCN(CCc2ccccc2)CC2CC2)c1 [HS666],EC50,human κ receptor [6],449 ± 56 nM
same,log(τ/KA) β-arrestin2,human κ receptor [6],3.52 ± 0.02
same,Emax,human κ receptor [6]; read-out: β-arrestin2 recruitment Emax,24 ± 1%
same,Ki,μ receptor,826 nM
same,antinociceptive activity in μ-KO mice compared with wild-type,[1],not statistically altered
same,antinociceptive activity in κ-KO mice compared with wild-type,[7],no antinociceptive activity
same,bias factor (G protein over β-arrestin2),human κ receptor [2],62
same,"fold decrease in potency, [35S]-GTPγS assay versus PathHunter assay",human κ receptor [2],13 fold
same,ΔΔlog(τ/KA) G protein - β-arrestin2,human κ receptor [2],1.79
same,Ki,human κ receptor [8],5.9 nM
same,conditioned place preference or aversion,C57BL/6J wild-type mice [3],neither significant preference nor aversion
same,G protein activation (agonist activity) at the μ receptor,human μ receptor,no agonist activity
same,% antinociception,C57BL/6J wild-type mice [4],1.00 ± 0.48%
same,effect on motor performance (latency to fall),C57BL/6J wild-type mice [5],did not significantly impact motor performance
same,affinity for the NOP receptor,human NOP receptor,no significant affinity
same,Ki,δ receptor,> 10 µM
same,EC50,human κ receptor [9],35.7 ± 6 nM
same,agonist-stimulated [35S]-GTPγS binding in the presence of nor-BNI,human κ receptor [9],significantly antagonized
same,"inhibition of U69,593-stimulated [35S]-GTPγS coupling",human κ receptor [9],partially blocks
same,log(τ/KA) G protein,human κ receptor [9],5.73 ± 0.29
same,Emax,human κ receptor [9]; read-out: G protein coupling Emax,50 ± 4%
"CN1CC[C@]23c4c5ccc(O)c4O[C@H]2[C@@H](O)C=C[C@H]3[C@H]1C5 [morphine, morphine sulfate, reference compound]",conditioned place preference or aversion,C57BL/6J wild-type mice [3],significant CPP
same,antinociceptive ED50,C57BL/6J wild-type mice [10],2.35 nmol
"Oc1ccc2c3c1O[C@H]1c4[nH]c5c(c4C[C@@]4(O)[C@@H](C2)N(CC2CC2)CC[C@]314)C[C@@]1(O)[C@H]2Cc3ccc(O)c4c3[C@@]1(CCN2CC1CC1)[C@H]5O4 [nor-BNI, nor‐binaltorphimine, reference compound]","inhibition of U69,593-stimulated [35S]-GTPγS coupling",human κ receptor [9],completely blocks coupling
